Measured values as given in US11945822B2, “Pyrazolo-triazine and/or pyrazolo-pxrimidine derivatives as selective inhibitor of cyclin dependent kinase” (QURIENT CO., LTD., priority 2018, dated 2024).

Tests used:
H460 = assay: Cellular H460 viability assay (CellTiter-Glo, 72 hours); assay type: cell-based; details: Homo sapiens, NCI-H460
In short: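 Luminescent ATP read-out (CellTiter-Glo) after 72 h compound exposure at 37 °C/5% CO2; duplicate wells; vehicle control DMSO <0.1% final; seeding density set per cell line.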

CDK2/Cyclin A = target: T1, CDK2/Cyclin A (Homo sapiens, UniProt P24941); assay: Enzymatic assay for CDK2 (FRET based LANCE Ultra kinase assay); assay type: biochemical; details: read-out: CDK2 enzymatic activity (IC50 range)
T1 construct: purchased Invitrogen PV6290
In short: (§1)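 LANCE Ultra TR-FRET: ULight-MBP peptide (68 nM) with ATP at Km, […], 60 min at 23° C. EDTA plus Eu-anti-phospho-MBP added, another 60 min, then 665/615 nm emission read. Compounds tested as 8-dose 4-fold DMSO dilutions.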

CDK5/p25 = target: T2, CDK5/p25 (Homo sapiens, UniProt Q00535); assay: Enzymatic assay for CDK5 (FRET based LANCE Ultra kinase assay); assay type: biochemical; details: read-out: CDK5 enzymatic activity (IC50 range)
T2 construct: purchased Invitrogen PR8543B
In short: as §1

HCT116 = assay: Cellular HCT116 viability assay (CellTiter-Glo, 72 hours); assay type: cell-based; details: Homo sapiens, HCT-116
Method: (§2) All cell lines were routinely tested for mycoplasma.
(§3) The effect of the CDK7 inhibitor to inhibit the growth of target cancer cells was evaluated through the 72 hours time period of viability assay. Briefly, the candidate cell line ware plated in 96 well plate at the following density of cells respectively. […] DMSO solvent without compound served as a control and final DMSO concentration less than 0.1%. After 72 hours of incubation at 37° C., 5% CO2 incubator, cells were analyzed for the viability using the CellTiter-Glo Luminescent Cell Viability Assay (Promega, Cat #G7570). All viability assays were performed in duplicate and Luminescence was read using an Envision (Perkin Elmer, USA). Data was analyzed using XLfit software.

MV4-11 = assay: Cellular MV4-11 viability assay (CellTiter-Glo, 72 hours); assay type: cell-based; details: Homo sapiens
Method: as §2, §3

CDK7/Cyclin H/MNAT1 = target: T3, CDK7/Cyclin H/MNAT1 (Homo sapiens, UniProt P50613); assay: Enzymatic assay for CDK7 (FRET based LANCE Ultra kinase assay); assay type: biochemical; details: for IC50: read-out: CDK7 enzymatic activity (IC50 range)
T3 construct: purchased Invitrogen PR6749B
In short: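 Inhibition was measured at Km ATP by time-resolved FRET between a Eu anti-phospho antibody and a phosphorylated ULight peptide. The enzyme was the purified CDK7/cyclin complex, and data were curve-fitted.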

CDK1/Cyclin B = target: T4, CDK1/Cyclin B (Homo sapiens, UniProt P06493); assay: Enzymatic assay for CDK1 (FRET based LANCE Ultra kinase assay); assay type: biochemical; details: read-out: CDK1 enzymatic activity (IC50 range)
T4 construct: purchased Invitrogen PR4768C
In short: as §1

T3 sequence (P50613 whole entry): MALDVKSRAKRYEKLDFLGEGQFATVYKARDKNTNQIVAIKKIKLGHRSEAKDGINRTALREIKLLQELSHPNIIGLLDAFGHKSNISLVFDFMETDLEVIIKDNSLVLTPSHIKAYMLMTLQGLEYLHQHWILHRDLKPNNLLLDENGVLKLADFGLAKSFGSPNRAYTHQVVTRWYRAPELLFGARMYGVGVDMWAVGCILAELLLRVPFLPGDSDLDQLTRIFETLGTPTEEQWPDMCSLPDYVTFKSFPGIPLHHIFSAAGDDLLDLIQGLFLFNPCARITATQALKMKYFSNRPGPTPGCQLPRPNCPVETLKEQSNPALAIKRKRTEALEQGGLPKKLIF
T3 sequence (P51946 whole entry partner): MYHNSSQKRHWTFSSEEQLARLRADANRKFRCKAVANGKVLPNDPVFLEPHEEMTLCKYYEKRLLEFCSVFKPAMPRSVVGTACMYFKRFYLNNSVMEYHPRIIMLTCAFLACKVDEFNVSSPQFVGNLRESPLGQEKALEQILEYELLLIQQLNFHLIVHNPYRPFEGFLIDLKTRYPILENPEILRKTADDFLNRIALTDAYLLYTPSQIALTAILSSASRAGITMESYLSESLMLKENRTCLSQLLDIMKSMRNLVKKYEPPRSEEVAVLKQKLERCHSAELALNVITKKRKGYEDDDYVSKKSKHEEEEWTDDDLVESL
T3 sequence (P51948 whole entry partner): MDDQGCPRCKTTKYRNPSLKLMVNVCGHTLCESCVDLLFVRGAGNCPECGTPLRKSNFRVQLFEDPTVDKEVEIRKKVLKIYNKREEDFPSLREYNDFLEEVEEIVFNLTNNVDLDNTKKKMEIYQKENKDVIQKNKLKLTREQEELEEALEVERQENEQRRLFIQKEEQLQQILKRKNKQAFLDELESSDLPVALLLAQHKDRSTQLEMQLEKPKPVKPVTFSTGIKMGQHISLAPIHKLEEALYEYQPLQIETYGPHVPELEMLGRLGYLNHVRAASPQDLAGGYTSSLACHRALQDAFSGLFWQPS
T4 sequence (P06493 whole entry): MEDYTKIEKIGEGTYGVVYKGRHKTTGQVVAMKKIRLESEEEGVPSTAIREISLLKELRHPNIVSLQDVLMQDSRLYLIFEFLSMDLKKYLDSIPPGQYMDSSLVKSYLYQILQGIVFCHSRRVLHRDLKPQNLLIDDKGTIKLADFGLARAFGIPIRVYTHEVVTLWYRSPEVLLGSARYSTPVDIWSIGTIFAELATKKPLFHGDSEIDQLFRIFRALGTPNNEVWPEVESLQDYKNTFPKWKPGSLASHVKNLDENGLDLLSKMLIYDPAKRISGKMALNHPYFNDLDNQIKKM
T4 sequence (P14635 whole entry partner): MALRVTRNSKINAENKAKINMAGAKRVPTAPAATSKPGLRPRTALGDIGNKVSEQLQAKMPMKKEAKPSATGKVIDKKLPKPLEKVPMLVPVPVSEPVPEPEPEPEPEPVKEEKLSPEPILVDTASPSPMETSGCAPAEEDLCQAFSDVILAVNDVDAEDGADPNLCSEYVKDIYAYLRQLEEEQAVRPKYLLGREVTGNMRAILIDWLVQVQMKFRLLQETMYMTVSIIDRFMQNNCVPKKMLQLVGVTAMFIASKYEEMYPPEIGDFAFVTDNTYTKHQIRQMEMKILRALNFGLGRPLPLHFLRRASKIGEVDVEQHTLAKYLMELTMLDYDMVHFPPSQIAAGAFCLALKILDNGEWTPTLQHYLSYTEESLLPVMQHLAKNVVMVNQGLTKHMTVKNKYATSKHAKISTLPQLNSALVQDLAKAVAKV
T2 sequence (Q00535 whole entry): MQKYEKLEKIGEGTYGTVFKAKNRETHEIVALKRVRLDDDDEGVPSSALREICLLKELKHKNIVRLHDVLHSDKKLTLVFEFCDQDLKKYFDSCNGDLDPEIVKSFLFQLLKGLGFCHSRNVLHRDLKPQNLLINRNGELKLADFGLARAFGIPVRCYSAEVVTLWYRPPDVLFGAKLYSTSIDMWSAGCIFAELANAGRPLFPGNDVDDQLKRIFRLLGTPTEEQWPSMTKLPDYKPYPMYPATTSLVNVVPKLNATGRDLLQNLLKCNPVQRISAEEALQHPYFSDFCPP
T2 sequence (Q15078 99-307 partner limits assumed): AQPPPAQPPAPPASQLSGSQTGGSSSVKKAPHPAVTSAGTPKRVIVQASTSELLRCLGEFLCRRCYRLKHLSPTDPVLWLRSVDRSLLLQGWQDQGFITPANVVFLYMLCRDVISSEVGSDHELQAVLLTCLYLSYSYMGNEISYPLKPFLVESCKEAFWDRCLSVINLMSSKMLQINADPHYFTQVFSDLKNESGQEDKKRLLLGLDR

| IC50 (H460) [nM] | IC50 (CDK2/Cyclin A) [nM] | IC50 (CDK5/p25) [nM] | IC50 (HCT116) [nM] | IC50 (MV4-11) [nM] | CDK1/CDK7: Selectivity of CDK7 inhibition over CDK1 inhibition (CDK7/Cyclin H/MNAT1) | CDK2/CDK7: Selectivity of CDK7 inhibition over CDK2 inhibition (CDK7/Cyclin H/MNAT1) | CDK5/CDK7: Selectivity of CDK7 inhibition over CDK5 inhibition (CDK7/Cyclin H/MNAT1) | IC50 (CDK7/Cyclin H/MNAT1) [nM] | IC50 (CDK1/Cyclin B) [nM] | SMILES |
| --- | --- | --- | --- | --- | --- | --- | --- | --- | --- | --- |
| < 1000 | > 1000 | > 1000 | < 1000 | < 1000 | A (A=greater than 200 fold) | A (A=greater than 200 fold) | A (A=greater than 200 fold) | < 100 | > 1000 | CC(C)c1cnn2c(NCc3ccccc3-c3ccc4ccccc4n3)nc(OCC3CCNCC3O)nc12 (stereo not shown) [Compound 218] |
| < 1000 | > 1000 | > 1000 | < 1000 | < 1000 | A (A=greater than 200 fold) | A (A=greater than 200 fold) | A (A=greater than 200 fold) | < 100 | > 1000 | CC(C)c1cnn2c(NCc3ccccc3-n3ccc(C(C)(C)O)n3)nc(N3CCC(CN)CC3)nc12 [Compound 221] |
| < 1000 | 100 to 1000 | 100 to 1000 | < 1000 | < 1000 | A (A=greater than 200 fold) | A (A=greater than 200 fold) | A (A=greater than 200 fold) | < 100 | > 1000 | CC(C)c1cnn2c(NCc3ccccc3-c3ccc4ccccc4n3)nc(NCC3CCNCC3O)nc12 (stereo not shown) [Compound 222] |
| < 1000 | > 1000 | > 1000 | < 1000 | < 1000 | A (A=greater than 200 fold) | A (A=greater than 200 fold) | A (A=greater than 200 fold) | < 100 | > 1000 | CC(C)c1cnn2c(NCc3ccccc3-n3ccc(C(C)(C)O)n3)nc(NCC3CCNCC3)nc12 [Compound 224] |
| < 1000 | > 1000 | > 1000 | < 1000 | 1000 to 10000 | A (A=greater than 200 fold) | A (A=greater than 200 fold) | A (A=greater than 200 fold) | < 100 | > 1000 | CC(C)c1cnn2c(NCc3ccccc3-n3ccc(C(C)(C)O)n3)nc(OCC3CCNCC3)nc12 [Compound 227] |
| < 1000 | > 1000 | 100 to 1000 | < 1000 | < 1000 | A (A=greater than 200 fold) | A (A=greater than 200 fold) | A (A=greater than 200 fold) | < 100 | > 1000 | CC(C)c1cnn2c(NCc3ccccc3-n3ccc(C(C)(C)O)n3)nc(N3CCC(O)(CN)CC3)nc12 [Compound 228] |

Continued, compound first:

| SMILES | IC50 (H460) [nM] | IC50 (CDK2/Cyclin A) [nM] | IC50 (CDK5/p25) [nM] | IC50 (HCT116) [nM] | IC50 (MV4-11) [nM] | CDK1/CDK7: Selectivity of CDK7 inhibition over CDK1 inhibition (CDK7/Cyclin H/MNAT1) | CDK2/CDK7: Selectivity of CDK7 inhibition over CDK2 inhibition (CDK7/Cyclin H/MNAT1) | CDK5/CDK7: Selectivity of CDK7 inhibition over CDK5 inhibition (CDK7/Cyclin H/MNAT1) | IC50 (CDK7/Cyclin H/MNAT1) [nM] | IC50 (CDK1/Cyclin B) [nM] |
| --- | --- | --- | --- | --- | --- | --- | --- | --- | --- | --- |
| CC(C)c1cnn2c(NCc3ccccc3-c3ccc4ccccc4n3)nc(NCC3CCNCC3)nc12 [Compound 209] | < 1000 | > 1000 | > 1000 | < 1000 | < 1000 | A (A=greater than 200 fold) | A (A=greater than 200 fold) | A (A=greater than 200 fold) | < 100 | > 1000 |
| CCC(=O)N1CCc2nn(-c3cccc(Cl)c3CNc3cc(O[C@@H]4CCCNC4)nc4c(C(C)C)cnn34)cc2C1 [Compound 211] | 1000 to 10000 | > 1000 | > 1000 | 1000 to 10000 | 1000 to 10000 | A (A=greater than 200 fold) | A (A=greater than 200 fold) | A (A=greater than 200 fold) | < 100 | > 1000 |
| CC(C)c1cnn2c(NCc3ccccc3-c3ccc4ccccc4n3)nc(NCC3(O)CCNCC3)nc12 [Compound 212] | 1000 to 10000 | > 1000 | > 1000 | 1000 to 10000 | 1000 to 10000 | A (A=greater than 200 fold) | B (B=less than 200 fold, but greater than 20 fold) | B (B=less than 200 fold, but greater than 20 fold) | < 100 | > 1000 |
| CC(C)c1cnn2c(NCc3ccccc3-c3ccc4ccccc4n3)cc(OCC3CCNCC3)nc12 [Compound 213] | 1000 to 10000 | > 1000 | > 1000 | 1000 to 10000 | 1000 to 10000 | A (A=greater than 200 fold) | A (A=greater than 200 fold) | A (A=greater than 200 fold) | < 100 | > 1000 |
| Cc1cccc(-c2cc(CO)nn2C)c1CNc1nc(N2CCC(N)CC2)nc2c(C(C)C)cnn12 [Compound 214] | < 1000 | > 1000 | > 1000 | < 1000 | < 1000 | A (A=greater than 200 fold) | A (A=greater than 200 fold) | A (A=greater than 200 fold) | < 100 | > 1000 |
| CC(C)c1cnn2c(NCc3ccccc3-c3ccc4ccccc4n3)nc(OCC3CCNCC3)nc12 [Compound 215] | < 1000 | > 1000 | > 1000 | 1000 to 10000 | 1000 to 10000 | A (A=greater than 200 fold) | A (A=greater than 200 fold) | A (A=greater than 200 fold) | < 100 | > 1000 |
| CC(C)c1cnn2c(NCc3ccccc3-c3ccc4ccccc4n3)nc(N3CCC(CN)CC3)nc12 [Compound 216] | < 1000 | > 1000 | > 1000 | < 1000 | < 1000 | A (A=greater than 200 fold) | A (A=greater than 200 fold) | A (A=greater than 200 fold) | < 100 | > 1000 |
| CC(C)c1cnn2c(NCc3c(Cl)cccc3-n3ccc(C(C)(C)O)n3)nc(N3CCC(CN)CC3)nc12 [Compound 217] | < 1000 | > 1000 | > 1000 | < 1000 | < 1000 | A (A=greater than 200 fold) | A (A=greater than 200 fold) | A (A=greater than 200 fold) | < 100 | > 1000 |
| CC(C)c1cnn2c(NCc3ccccc3-n3ccc(C(C)(C)O)n3)nc(NCC3CCNCC3O)nc12 (stereo not shown) [Compound 223] | < 1000 | > 1000 | > 1000 | < 1000 | < 1000 | A (A=greater than 200 fold) | B (B=less than 200 fold, but greater than 20 fold) | B (B=less than 200 fold, but greater than 20 fold) | < 100 | > 1000 |
| CC(C)c1cnn2c(NCc3ccccc3-n3ccc(C(C)(C)O)n3)nc(NCC3(O)CCNCC3)nc12 [Compound 229] | 1000 to 10000 | 100 to 1000 | 100 to 1000 | 1000 to 10000 | 1000 to 10000 | B (B=less than 200 fold, but greater than 20 fold) | C (C=less than 20 fold) | C (C=less than 20 fold) | < 100 | > 1000 |
